Tests used:
[1] = wn = mass fraction of the nth substance listed; conditions: for surface tension liquid-gas: Maximal bubble pressure; for mass density: 101 kPa, Liquid, Buoyancy - hydrostatic balance
[2] = refractive index (Na D-line) (dimensionless); wn = mass fraction of the nth substance listed; conditions: 101 kPa, Liquid, Standard Abbe refractometry

CC(O)C(=O)[O-].CCCCCn1cc[n+](C)c1 [1-pentyl-3-methylimidazolium lactate] + O
Conditions | mass density, [1] [kg/m3] | refractive index, [2] | surface tension liquid-gas, [1] [mN/m]
288.15 K, w2 = 0.0081 | – | 1.4933 | –
288.15 K, w2 = 0.0086 | 1116.6 | – | 43.7
288.15 K, w2 = 0.0102 | – | 1.4931 | –
288.15 K, w2 = 0.0106 | 1117.4 | – | 43.8
288.15 K, w2 = 0.0129 | 1118.6 | 1.4929 | 44
288.15 K, w2 = 0.0153 | – | 1.4927 | –
288.15 K, w2 = 0.0163 | 1120.3 | – | 44.3
288.15 K, w2 = 0.0199 | – | 1.4923 | –
288.15 K, w2 = 0.021 | 1122.4 | – | 44.6
293.15 K, w2 = 0.0081 | – | 1.492 | –
293.15 K, w2 = 0.0086 | 1113.1 | – | 43.3
293.15 K, w2 = 0.0102 | – | 1.4918 | –
293.15 K, w2 = 0.0106 | 1113.9 | – | 43.4
293.15 K, w2 = 0.0129 | 1115.2 | 1.4916 | 43.6
293.15 K, w2 = 0.0153 | – | 1.4913 | –
293.15 K, w2 = 0.0163 | 1116.8 | – | 43.9
293.15 K, w2 = 0.0199 | – | 1.4909 | –
293.15 K, w2 = 0.021 | 1119 | – | 44.2
303.15 K, w2 = 0.0081 | – | 1.4894 | –
303.15 K, w2 = 0.0086 | 1106.8 | – | 42.6
303.15 K, w2 = 0.0102 | – | 1.4892 | –
303.15 K, w2 = 0.0106 | 1107.6 | – | 42.7
303.15 K, w2 = 0.0129 | 1108.8 | 1.489 | 42.9
303.15 K, w2 = 0.0153 | – | 1.4888 | –
303.15 K, w2 = 0.0163 | 1110.5 | – | 43.2
303.15 K, w2 = 0.0199 | – | 1.4884 | –
303.15 K, w2 = 0.021 | 1112.7 | – | 43.5
308.15 K, w2 = 0.0081 | – | 1.4883 | –
308.15 K, w2 = 0.0086 | 1103.6 | – | 42.2
308.15 K, w2 = 0.0102 | – | 1.4881 | –
308.15 K, w2 = 0.0106 | 1104.3 | – | 42.3
308.15 K, w2 = 0.0129 | 1105.6 | 1.4879 | 42.5
308.15 K, w2 = 0.0153 | – | 1.4876 | –
308.15 K, w2 = 0.0163 | 1107.3 | – | 42.8
308.15 K, w2 = 0.0199 | – | 1.4872 | –
308.15 K, w2 = 0.021 | 1109.5 | – | 43.2
313.15 K, w2 = 0.0081 | – | 1.4869 | –
313.15 K, w2 = 0.0086 | 1099.9 | – | 41.9
313.15 K, w2 = 0.0102 | – | 1.4867 | –
313.15 K, w2 = 0.0106 | 1100.7 | – | 42
313.15 K, w2 = 0.0129 | 1102.1 | 1.4865 | 42.2
313.15 K, w2 = 0.0153 | – | 1.4863 | –
313.15 K, w2 = 0.0163 | 1104 | – | 42.5
313.15 K, w2 = 0.0199 | – | 1.486 | –
313.15 K, w2 = 0.021 | 1106.4 | – | 42.9
318.15 K, w2 = 0.0081 | – | 1.4857 | –
318.15 K, w2 = 0.0086 | 1097.1 | – | 41.6
318.15 K, w2 = 0.0102 | – | 1.4855 | –
318.15 K, w2 = 0.0106 | 1097.8 | – | 41.8
318.15 K, w2 = 0.0129 | 1099.1 | 1.4853 | 41.9
318.15 K, w2 = 0.0153 | – | 1.4851 | –
318.15 K, w2 = 0.0163 | 1100.8 | – | 42.2
318.15 K, w2 = 0.0199 | – | 1.4847 | –
318.15 K, w2 = 0.021 | 1103 | – | 42.6
323.15 K, w2 = 0.0081 | – | 1.4845 | –
323.15 K, w2 = 0.0086 | 1093.9 | – | 41.2
323.15 K, w2 = 0.0102 | – | 1.4844 | –
323.15 K, w2 = 0.0106 | 1094.6 | – | 41.4
323.15 K, w2 = 0.0129 | 1095.8 | 1.4842 | 41.5
323.15 K, w2 = 0.0153 | – | 1.4841 | –
323.15 K, w2 = 0.0163 | 1097.5 | – | 41.8
323.15 K, w2 = 0.0199 | – | 1.4838 | –
323.15 K, w2 = 0.021 | 1099.6 | – | 42.2
328.15 K, w2 = 0.0081 | – | 1.4833 | –
328.15 K, w2 = 0.0086 | 1090.5 | – | 40.8
328.15 K, w2 = 0.0102 | – | 1.4831 | –
328.15 K, w2 = 0.0106 | 1091.2 | – | 41
328.15 K, w2 = 0.0129 | 1092.5 | 1.4829 | 41.1
328.15 K, w2 = 0.0153 | – | 1.4826 | –
328.15 K, w2 = 0.0163 | 1094.1 | – | 41.4
328.15 K, w2 = 0.0199 | – | 1.4822 | –
328.15 K, w2 = 0.021 | 1096.4 | – | 41.8
333.15 K, w2 = 0.0081 | – | 1.482 | –
333.15 K, w2 = 0.0086 | 1087.4 | – | 40.5
333.15 K, w2 = 0.0102 | – | 1.4818 | –
333.15 K, w2 = 0.0106 | 1088.1 | – | 40.7
333.15 K, w2 = 0.0129 | 1089.3 | 1.4816 | 40.8
333.15 K, w2 = 0.0153 | – | 1.4814 | –
333.15 K, w2 = 0.0163 | 1091 | – | 41.1
333.15 K, w2 = 0.0199 | – | 1.481 | –
333.15 K, w2 = 0.021 | 1093.2 | – | 41.5
